± gives the expanded uncertainty stated by the source.
Settings: Crystal; DTA

Q: Which Normal melting temperature does the source give for COc1ccc2[nH]c(SCc3ncc(C)c(OC)c3C)nc2c1 [Omeprazole sulfide] here?
A: Its Normal melting temperature is 119.00 ± 0.5 °C.

Source: the NIST ThermoML archive (doi:10.1016/j.fluid.2015.07.038)
